Assay results: US9695163B2, “Thiazole orexin receptor antagonists” (MERCK SHARP & DOHME CORP., priority 2013, dated 2017)
pIC50: −log10 of the molar value.

Columns and labels:
[1] = target: human orexin-1 receptor (hOX1R) (Homo sapiens (Human), UniProt O43613); test: FLIPR Ca2+ Flux Assay, CHO cells expressing human orexin-1 receptor; assay type: cell-based; conditions: agonist Ala-6,12 human orexin-A 70 pM
Description: The utility of the compounds in accordance with the present invention as orexin receptor OX1R and/or OX2R antagonists may be readily determined without undue experimentation by methodology well known in the art, including the “FLIPR Ca^2+ Flux Assay” (Okumura et al., Biochem. Biophys. Res. Comm. 2001, 280:976-981). Briefly, for intracellular calcium measurements, Chinese hamster ovary (CHO) cells expressing the orexin-1 receptor (e.g., rat or human) or the orexin-2 receptor (e.g., rat or human), are grown in Iscove's modified DMEM containing 2 mM L-glutamine, […], 1% hypoxanthine-thymidine supplement, 100 U/ml penicillin, 100 μg/ml streptomycin and 10% heat-inactivated fetal calf serum (FCS). The cells are seeded at approximately 20,000 cells per well into 384-well clear bottom sterile plates coated with poly-D-lysine. The seeded plates are incubated overnight at 37° C. and 5% CO2. Human ala-6,12 orexin-A can be used as the agonist and prepared as a 1 mM stock solution in 1% bovine serum albumin (BSA) and diluted in assay buffer (HBSS containing 20 mM HEPES, 0.1% BSA and 2.5 mM probenecid, pH7.4) for use in the assay at a final concentration of 70 pM. Test compounds are prepared as 10 mM stock solution in DMSO, then diluted in 384-well plates, first in DMSO, then in assay buffer. On the day of the assay, cells are washed 3 times with 100 μl assay buffer and then incubated for 60 minutes (37° C., 5% CO2) in 60 μl assay buffer containing 1 μM Fluo-4 AM ester, 0.02% pluronic acid, and 1% BSA. The dye loading solution is then aspirated and cells are washed 3 times with 100 μl assay buffer. 30 μl of that same buffer is left in each well. Within the Fluorescent Imaging Plate Reader (FLIPR, Molecular Devices), test compounds are added to the plate in a volume of 25 μl, incubated for 5 minutes, and then 25 μl of agonist is added. Fluorescence is measured for each well at 1 second intervals for 5 minutes, and the height of each fluorescence peak is compared to the height of the fluorescence peak induced by 70 pM of agonist ala-6,12 orexin-A with buffer in place of test compound. IC50 value for the test compound is determined to be the concentration of compound needed to inhibit 50% of the agonist response. Alternatively, compound potency can be assessed using a radioligand binding assay (described in Bergman et. al., Bioorg. Med. Chem. Lett. 2008, 18:1425-1430) in which the inhibition constant (Ki) is determined in membranes prepared from CHO cells expressing either the OX1 or OX2 receptor. The intrinsic orexin receptor antagonist activity of a compound of the present invention may be determined by these assays.

[2] = target: human orexin-2 receptor (hOX2R) (Homo sapiens (Human), UniProt O43614); test: FLIPR Ca2+ Flux Assay, CHO cells expressing human orexin-2 receptor; assay type: cell-based; conditions: agonist Ala-6,12 human orexin-A 70 pM
Method: Briefly, for intracellular calcium measurements, Chinese hamster ovary (CHO) cells expressing the orexin-1 receptor (e.g., rat or human) or the orexin-2 receptor (e.g., rat or human), are grown in Iscove's modified DMEM containing 2 mM L-glutamine, […], 1% hypoxanthine-thymidine supplement, 100 U/ml penicillin, 100 μg/ml streptomycin and 10% heat-inactivated fetal calf serum (FCS). The cells are seeded at approximately 20,000 cells per well into 384-well clear bottom sterile plates coated with poly-D-lysine. The seeded plates are incubated overnight at 37° C. and 5% CO2. Human ala-6,12 orexin-A can be used as the agonist and prepared as a 1 mM stock solution in 1% bovine serum albumin (BSA) and diluted in assay buffer (HBSS containing 20 mM HEPES, 0.1% BSA and 2.5 mM probenecid, pH7.4) for use in the assay at a final concentration of 70 pM. Test compounds are prepared as 10 mM stock solution in DMSO, then diluted in 384-well plates, first in DMSO, then in assay buffer. On the day of the assay, cells are washed 3 times with 100 μl assay buffer and then incubated for 60 minutes (37° C., 5% CO2) in 60 μl assay buffer containing 1 μM Fluo-4 AM ester, 0.02% pluronic acid, and 1% BSA. The dye loading solution is then aspirated and cells are washed 3 times with 100 μl assay buffer. 30 μl of that same buffer is left in each well. Within the Fluorescent Imaging Plate Reader (FLIPR, Molecular Devices), test compounds are added to the plate in a volume of 25 μl, incubated for 5 minutes, and then 25 μl of agonist is added. Fluorescence is measured for each well at 1 second intervals for 5 minutes, and the height of each fluorescence peak is compared to the height of the fluorescence peak induced by 70 pM of agonist ala-6,12 orexin-A with buffer in place of test compound. IC50 value for the test compound is determined to be the concentration of compound needed to inhibit 50% of the agonist response. Alternatively, compound potency can be assessed using a radioligand binding assay (described in Bergman et. al., Bioorg. Med. Chem. Lett. 2008, 18:1425-1430) in which the inhibition constant (Ki) is determined in membranes prepared from CHO cells expressing either the OX1 or OX2 receptor. The intrinsic orexin receptor antagonist activity of a compound of the present invention may be determined by these assays. […]

human orexin-1 receptor (hOX1R), sequence (O43613 whole entry): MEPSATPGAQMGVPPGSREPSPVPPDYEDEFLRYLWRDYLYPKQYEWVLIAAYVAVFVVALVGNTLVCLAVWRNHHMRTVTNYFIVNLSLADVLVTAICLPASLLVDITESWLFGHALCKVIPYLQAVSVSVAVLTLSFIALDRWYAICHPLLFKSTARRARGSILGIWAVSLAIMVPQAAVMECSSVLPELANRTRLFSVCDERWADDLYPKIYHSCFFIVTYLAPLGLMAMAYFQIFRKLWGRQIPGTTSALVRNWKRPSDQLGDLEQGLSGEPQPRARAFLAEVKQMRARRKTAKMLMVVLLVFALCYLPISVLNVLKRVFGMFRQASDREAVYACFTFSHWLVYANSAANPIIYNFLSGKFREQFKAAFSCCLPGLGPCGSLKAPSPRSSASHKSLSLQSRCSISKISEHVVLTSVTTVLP
human orexin-2 receptor (hOX2R), sequence (O43614 whole entry): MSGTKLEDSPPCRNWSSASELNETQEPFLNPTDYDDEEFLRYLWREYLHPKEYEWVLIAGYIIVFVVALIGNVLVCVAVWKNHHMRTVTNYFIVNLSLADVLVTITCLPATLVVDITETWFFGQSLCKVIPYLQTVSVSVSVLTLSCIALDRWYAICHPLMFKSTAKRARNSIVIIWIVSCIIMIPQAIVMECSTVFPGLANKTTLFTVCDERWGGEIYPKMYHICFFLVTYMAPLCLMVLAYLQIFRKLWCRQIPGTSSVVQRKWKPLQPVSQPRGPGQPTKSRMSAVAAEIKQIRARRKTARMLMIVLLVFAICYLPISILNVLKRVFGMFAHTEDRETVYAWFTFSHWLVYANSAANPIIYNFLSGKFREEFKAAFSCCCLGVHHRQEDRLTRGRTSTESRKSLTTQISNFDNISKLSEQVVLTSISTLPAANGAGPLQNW

SMILES | pIC50 [1] | pIC50 [2]
C[C@@H]1CC[C@@H](c2nc(C(C)(C)O)cs2)CN1C(=O)c1ccc(F)cc1-n1nccn1 [Example 13, (4-fluoro-2-(2H-1,2,3-triazol-2-yl)phenyl)((2R,5R)-5-(4-(2-hydroxypropan-2-yl)thiazol-2-yl)-2-methylpiperidin-1-yl)methanone] | 5.65 | 7.72
C[C@@H]1CC[C@@H](c2nc(C(C)(C)O)cs2)CN1C(=O)c1ccccc1-n1ncnn1 [Example 14, (2-(2H-Tetrazol-2-yl)phenyl)((2R,5R)-5-(4-(2-hydroxypropan-2-yl)thiazol-2-yl)-2-methylpiperidin-1-yl)methanone] | < 5.00 | 7.68
C[C@@H]1CC[C@@H](c2nc(C(C)(C)O)cs2)CN1C(=O)c1cscc1-n1nccn1 [Example 15, (4-(2H-1,2,3-Triazol-2-yl)thiophen-3-yl)((2R,5R)-5-(4-(2-hydroxypropan-2-yl)thiazol-2-yl)-2-methylpiperidin-1-yl)methanone] | < 5.00 | 7.80
C[C@@H]1CC[C@@H](c2nc(C(C)(C)O)cs2)CN1C(=O)c1cscc1-c1ncccn1 [Example 16, ((2R,5R)-5-(4-(2-hydroxypropan-2-yl)thiazol-2-yl)-2-methylpiperidin-1-yl)(4-(pyrimidin-2-yl)thiophen-3-yl)methanone] | 6.00 | 7.60
C[C@@H]1CC[C@@H](c2nc(C(C)(C)O)cs2)CN1C(=O)c1ccccc1-c1ncccn1 [Example 17, ((2R,5R)-5-(4-(2-Hydroxypropan-2-yl)thiazol-2-yl)-2-methylpiperidin-1-yl)(2-(pyrimidin-2-yl)phenyl)methanone] | 5.26 | 7.54
C[C@@H]1CC[C@@H](c2nc(C(C)(C)O)cs2)CN1C(=O)c1ccsc1-c1ncccn1 [Example 18, ((2R,5R)-5-(4-(2-Hydroxypropan-2-yl)thiazol-2-yl)-2-methylpiperidin-1-yl)(2-(pyrimidin-2-yl)thiophen-3-yl)methanone] | < 5.00 | 6.94
Cc1sc([C@@H]2CC[C@@H](C)N(C(=O)c3ccccc3-n3nccn3)C2)nc1C(C)(C)O [Example 19, (2-(2H-1,2,3-Triazol-2-yl)phenyl)((2R,5R)-5-(4-(2-hydroxypropan-2-yl)-5-methylthiazol-2-yl)-2-methylpiperidin-1-yl)methanone] | 6.48 | 7.85
Cc1sc([C@@H]2CC[C@@H](C)N(C(=O)c3ccsc3-n3nccn3)C2)nc1C(C)(C)O [Example 20, (2-(2H-1,2,3-triazol-2-yl)thiophen-3-yl)((2R,5R)-5-(4-(2-hydroxypropan-2-yl)-5-methylthiazol-2-yl)-2-methylpiperidin-1-yl)methanone] | 6.01 | 7.92
Cc1sc([C@@H]2CC[C@@H](C)N(C(=O)c3cscc3-n3nccn3)C2)nc1C(C)(C)O [Example 21, (4-(2H-1,2,3-triazol-2-yl)thiophen-3-yl)((2R,5R)-5-(4-(2-hydroxypropan-2-yl)-5-methylthiazol-2-yl)-2-methylpiperidin-1-yl)methanone] | 5.55 | 7.52
Cc1sc([C@@H]2CC[C@@H](C)N(C(=O)c3ccc(F)cc3-n3nccn3)C2)nc1C(C)(C)O [Example 22, (4-fluoro-2-(2H-1,2,3-triazol-2-yl)phenyl)((2R,5R)-5-(4-(2-hydroxypropan-2-yl)-5-methylthiazol-2-yl)-2-methylpiperidin-1-yl)methanone] | 6.03 | 7.70
Cc1sc([C@@H]2CC[C@@H](C)N(C(=O)c3ccccc3-c3ncccn3)C2)nc1C(C)(C)O [Example 23, ((2R,5R)-5-(4-(2-Hydroxypropan-2-yl)-5-methylthiazol-2-yl)-2-methylpiperidin-1-yl)(2-(pyrimidin-2-yl)phenyl)methanone] | 6.22 | 7.57
Cc1sc([C@@H]2CC[C@@H](C)N(C(=O)c3ccccc3-n3ncnn3)C2)nc1C(C)(C)O [Example 24, (2-(2H-Tetrazol-2-yl)phenyl)((2R,5R)-5-(4-(2-hydroxypropan-2-yl)-5-methylthiazol-2-yl)-2-methylpiperidin-1-yl)methanone] | 5.58 | 7.72
Cc1sc([C@@H]2CC[C@@H](C)N(C(=O)c3ccccc3C3(C#N)CC3)C2)nc1C(C)(C)O [Example 25, 1-(2-((2R,5R)-5-(4-(2-Hydroxypropan-2-yl)-5-methylthiazol-2-yl)-2-methylpiperidine-1-carbonyl)phenyl)cyclopropanecarbonitrile] | 6.62 | 7.92
Cc1sc([C@@H]2CC[C@@H](C)N(C(=O)c3ccccc3CS(C)(=O)=O)C2)nc1C(C)(C)O [Example 26, ((2R,5R)-5-(4-(2-Hydroxypropan-2-yl)-5-methylthiazol-2-yl)-2-methylpiperidin-1-yl)(2-((methylsulfonyl)methyl)phenyl)methanone] | < 5.00 | 7.49
Cc1sc([C@@H]2CC[C@@H](C)N(C(=O)c3cscc3-c3ncccn3)C2)nc1C(C)(C)O [Example 28, ((2R,5R)-5-(4-(2-Hydroxypropan-2-yl)-5-methylthiazol-2-yl)-2-methylpiperidin-1-yl)(4-(pyrimidin-2-yl)thiophen-3-yl)methanone] | 6.05 | 7.54
C[C@@H]1CC[C@@H](c2csc(C(C)(C)O)n2)CN1C(=O)c1ccccc1C1(C#N)CC1 [Example 30, 1-(2-((2R,5R)-5-(2-(2-hydroxypropan-2-yl)thiazol-4-yl)-2-methylpiperidine-1-carbonyl)phenyl)cyclopropanecarbonitrile] | 5.92 | 7.89
C[C@@H]1CC[C@@H](c2csc(C(C)(C)O)n2)CN1C(=O)c1ccsc1-c1ncccn1 [Example 31, ((2R,5R)-5-(2-(2-hydroxypropan-2-yl)thiazol-4-yl)-2-methylpiperidin-1-yl)(2-(pyrimidin-2-yl)thiophen-3-yl)methanone] | < 5.00 | 7.05
C[C@@H]1CC[C@@H](c2csc(C(C)(C)O)n2)CN1C(=O)c1cscc1-c1ncccn1 [Example 32, ((2R,5R)-5-(2-(2-hydroxypropan-2-yl)thiazol-4-yl)-2-methylpiperidin-1-yl)(4-(pyrimidin-2-yl)thiophen-3-yl)methanone] | < 5.00 | 6.89
C[C@@H]1CC[C@@H](c2csc(C(C)(C)O)n2)CN1C(=O)c1ccccc1-c1ncccn1 [Example 33, ((2R,5R)-5-(2-(2-hydroxypropan-2-yl)thiazol-4-yl)-2-methylpiperidin-1-yl)(2-(pyrimidin-2-yl)phenyl)methanone] | < 5.00 | 6.99
